The structures appear in SMILES notation. pEC50: −log10 of the molar value.

The assay concerns the target human F508del-CFTR (Homo sapiens, UniProt P13569, DEL508-508). Put plainly: F508del-CFTR cell surface expression (corrector activity), DiscoveRx ß-galactosidase complementation chemiluminescence assay in recombinant U2OS cell line.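 On all read-outs here: U2OS cells co-expressing ProLink-tagged F508del-CFTR and a membrane-anchored enzyme acceptor, where more surface CFTR restores β-galactosidase activity measured by chemiluminescence.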 To be noted: U2OS cell line, 16h compound incubation; for pEC50: EC50, F508del-CFTR cell surface expression, geomean values; for Emax: U2OS, in relation to the Emax of the corrector lumacaftor (=100%), arithmetic mean values.

Sequence of human F508del-CFTR (P13569 with tags, fused parts or gaps DEL508-508): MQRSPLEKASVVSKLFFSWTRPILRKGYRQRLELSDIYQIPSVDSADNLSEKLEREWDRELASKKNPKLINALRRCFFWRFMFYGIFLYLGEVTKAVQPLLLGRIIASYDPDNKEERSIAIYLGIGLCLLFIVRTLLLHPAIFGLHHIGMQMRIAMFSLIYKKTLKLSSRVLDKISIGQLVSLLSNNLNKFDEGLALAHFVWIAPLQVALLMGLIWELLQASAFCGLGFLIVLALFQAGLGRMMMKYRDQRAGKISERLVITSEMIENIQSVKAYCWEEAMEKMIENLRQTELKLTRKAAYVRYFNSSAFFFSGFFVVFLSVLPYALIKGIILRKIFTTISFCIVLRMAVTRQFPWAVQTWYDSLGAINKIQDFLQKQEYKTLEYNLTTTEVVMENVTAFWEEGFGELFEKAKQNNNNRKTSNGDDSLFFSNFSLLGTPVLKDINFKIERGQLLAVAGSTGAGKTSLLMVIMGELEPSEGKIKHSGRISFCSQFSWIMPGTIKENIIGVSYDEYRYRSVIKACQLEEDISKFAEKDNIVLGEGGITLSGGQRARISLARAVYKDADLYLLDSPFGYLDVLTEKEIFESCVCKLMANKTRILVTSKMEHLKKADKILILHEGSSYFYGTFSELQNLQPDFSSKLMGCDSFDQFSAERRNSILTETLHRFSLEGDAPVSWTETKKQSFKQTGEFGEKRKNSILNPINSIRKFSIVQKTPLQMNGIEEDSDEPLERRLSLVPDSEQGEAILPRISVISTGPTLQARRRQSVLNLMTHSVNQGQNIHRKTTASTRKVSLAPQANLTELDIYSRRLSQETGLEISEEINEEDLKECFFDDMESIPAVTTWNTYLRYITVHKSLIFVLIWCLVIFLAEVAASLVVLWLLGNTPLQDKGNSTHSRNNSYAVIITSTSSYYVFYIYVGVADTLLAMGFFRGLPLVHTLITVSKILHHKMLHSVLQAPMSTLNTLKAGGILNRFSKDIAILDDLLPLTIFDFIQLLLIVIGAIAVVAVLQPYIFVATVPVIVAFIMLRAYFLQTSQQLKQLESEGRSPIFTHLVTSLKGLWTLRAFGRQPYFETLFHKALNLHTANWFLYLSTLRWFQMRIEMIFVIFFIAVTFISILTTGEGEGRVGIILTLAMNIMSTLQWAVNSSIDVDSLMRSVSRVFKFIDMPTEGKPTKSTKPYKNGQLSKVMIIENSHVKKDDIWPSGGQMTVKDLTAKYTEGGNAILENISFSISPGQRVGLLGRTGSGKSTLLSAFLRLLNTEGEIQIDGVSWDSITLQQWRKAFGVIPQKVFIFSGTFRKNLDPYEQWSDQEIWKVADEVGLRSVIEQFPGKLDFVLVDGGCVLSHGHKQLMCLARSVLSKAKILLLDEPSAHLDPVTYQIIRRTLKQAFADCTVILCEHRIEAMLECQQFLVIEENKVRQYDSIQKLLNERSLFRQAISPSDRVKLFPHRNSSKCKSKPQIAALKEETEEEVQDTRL

Take `CC(C)C[C@H]1C(=O)N(C)C2(CC2)C(=O)N[C@H](Cc2ccccc2)COc2cnc3ccccc3c2C(=O)N[C@H](C(=O)NCCc2c(F)cccc2F)CC(=O)N1C` [Example 110, (3′S,7′S,13′R)-13′-benzyl-N-(2,6-difluorophenethyl)-7′-isobutyl-6′,9′-dimethyl-1′,5′,8′,11′-tetraoxo-2′,3′,4′,5′,6′,7′,8′,9′,11′,12′,13′,14′-dodecahydro-1′H-spiro[cyclopropane-1,10′-[1]oxa[4,7,10,14]tetraazacycloheptadecino[17,16-c]quinoline]-3′-carboxamide]: the pEC50 – broadly, the negative decadic logarithm of the EC50, by convention in mol/L – is 6.32 and the Emax (commonly the greatest response seen or fitted, relative to the assay's reference) turned out to be 261%.

For the molecule `COc1ccc(CCNC(=O)[C@@H]2CC(=O)N(C)[C@@H](CC(C)C)C(=O)N(C)C3(CC3)C(=O)N[C@H](Cc3ccccc3)COc3cnc4ccccc4c3C(=O)N2)cc1` [Example 111, (3′S,7′S,13′R)-13′-benzyl-7′-isobutyl-N-(4-methoxyphenethyl)-6′,9′-dimethyl-1′,5′,8′,11′-tetraoxo-2′,3′,4′,5′,6′,7′,8′,9′,11′,12′,13′,14′-dodecahydro-1′H-spiro[cyclopropane-1,10′-[1]oxa[4,7,10,14]tetraazacycloheptadecino[17,16-c]quinoline]-3′-carboxamide], the negative logarithm of the EC50 (pEC50) is 6.41 and the maximal response (Emax) is 242%.

On to `Cc1cccc(CCNC(=O)[C@@H]2CC(=O)N(C)[C@@H](CC(C)C)C(=O)N(C)C3(CC3)C(=O)N[C@H](Cc3ccccc3)COc3cnc4ccccc4c3C(=O)N2)c1` [Example 112, (3′S,7′S,13′R)-13′-benzyl-7′-isobutyl-6′,9′-dimethyl-N-(3-methylphenethyl)-1′,5′,8′,11′-tetraoxo-2′,3′,4′,5′,6′,7′,8′,9′,11′,12′,13′,14′-dodecahydro-1′H-spiro[cyclopropane-1,10′-[1]oxa[4,7,10,14]tetraazacycloheptadecino[17,16-c]quinoline]-3′-carboxamide], for which the pEC50 is 6.09 and the Emax came out at 200%.

With `CC(C)C[C@H]1C(=O)N(C)C2(CC2)C(=O)N[C@H](Cc2ccccc2)COc2cnc3ccccc3c2C(=O)N[C@H](C(=O)NCCc2ccc(F)c(F)c2)CC(=O)N1C` [Example 113, (3′S,7′S,13′R)-13′-benzyl-N-(3,4-difluorophenethyl)-7′-isobutyl-6′,9′-dimethyl-1′,5′,8′,11′-tetraoxo-2′,3′,4′,5′,6′,7′,8′,9′,11′,12′,13′,14′-dodecahydro-1′H-spiro[cyclopropane-1,10′-[1]oxa[4,7,10,14]tetraazacycloheptadecino[17,16-c]quinoline]-3′-carboxamide], the negative logarithm of the EC50 (pEC50) is 6.43 and the Emax is 158%.

As for `CCc1nc(CCNC(=O)[C@@H]2CC(=O)N(C)[C@@H](CC(C)C)C(=O)N(C)C3(CC3)C(=O)N[C@H](Cc3ccccc3)COc3cnc4ccccc4c3C(=O)N2)no1` [Example 114, (3′S,7′S,13′R)-13′-benzyl-N-(2-(5-ethyl-1,2,4-oxadiazol-3-yl)ethyl)-7′-isobutyl-6′,9′-dimethyl-1′,5′,8′,11′-tetraoxo-2′,3′,4′,5′,6′,7′,8′,9′,11′,12′,13′,14′-dodecahydro-1′H-spiro[cyclopropane-1,10′-[1]oxa[4,7,10,14]tetraazacycloheptadecino[17,16-c]quinoline]-3′-carboxamide], the negative logarithm of the EC50 (pEC50) was 6.03 and the Emax is 220%.

As to `CC(C)C[C@H]1C(=O)N(C)C2(CC2)C(=O)N[C@H](Cc2ccccc2)COc2cnc3ccccc3c2C(=O)N[C@H](C(=O)NCCc2noc(C3CC3)n2)CC(=O)N1C` [Example 115, (3′S,7′S,13′R)-13′-benzyl-N-(2-(5-cyclopropyl-1,2,4-oxadiazol-3-yl)ethyl)-7′-isobutyl-6′,9′-dimethyl-1′,5′,8′,11′-tetraoxo-2′,3′,4′,5′,6′,7′,8′,9′,11′,12′,13′,14′-dodecahydro-1′H-spiro[cyclopropane-1,10′-[1]oxa[4,7,10,14]tetraazacycloheptadecino[17,16-c]quinoline]-3′-carboxamide], the negative-log EC50 (pEC50) was 6.42 and the Emax came to 250%.

With `CC(C)C[C@H]1C(=O)N(C)C2(CC2)C(=O)N[C@H](Cc2ccccc2)COc2cnc3ccccc3c2C(=O)N[C@H](C(=O)NCCc2noc(C(C)(C)C)n2)CC(=O)N1C` [Example 116, (3′S,7′S,13′R)-13′-benzyl-N-(2-(5-(tert-butyl)-1,2,4-oxadiazol-3-yl)ethyl)-7′-isobutyl-6′,9′-dimethyl-1′,5′,8′,11′-tetraoxo-2′,3′,4′,5′,6′,7′,8′,9′,11′,12′,13′,14′-dodecahydro-1′H-spiro[cyclopropane-1,10′-[1]oxa[4,7,10,14]tetraazacycloheptadecino[17,16-c]quinoline]-3′-carboxamide], the pEC50 is 6.26 and the Emax is 253%.

Take `Cc1cc(CCNC(=O)[C@@H]2CC(=O)N(C)[C@@H](CC(C)C)C(=O)N(C)C3(CC3)C(=O)N[C@H](Cc3ccccc3)COc3cnc4ccccc4c3C(=O)N2)no1` [Example 117, (3′S,7′S,13′R)-13′-benzyl-7′-isobutyl-6′,9′-dimethyl-N-(2-(5-methylisoxazol-3-yl)ethyl)-1′,5′,8′,11′-tetraoxo-2′,3′,4′,5′,6′,7′,8′,9′,11′,12′,13′,14′-dodecahydro-1′H-spiro[cyclopropane-1,10′-[1]oxa[4,7,10,14]tetraazacycloheptadecino[17,16-c]quinoline]-3′-carboxamide]: the pEC50 was 6.11 and the Emax turned out to be 237%.

Take `CC(C)C[C@H]1C(=O)N(C)C2(CC2)C(=O)N[C@H](Cc2ccccc2)COc2cnc3ccccc3c2C(=O)N[C@H](C(=O)NCCc2cc(C3CC3)on2)CC(=O)N1C` [Example 118, (3′S,7′S,13′R)-13′-benzyl-N-(2-(5-cyclopropylisoxazol-3-yl)ethyl)-7′-isobutyl-6′,9′-dimethyl-1′,5′,8′,11′-tetraoxo-2′,3′,4′,5′,6′,7′,8′,9′,11′,12′,13′,14′-dodecahydro-1′H-spiro[cyclopropane-1,10′-[1]oxa[4,7,10,14]tetraazacycloheptadecino[17,16-c]quinoline]-3′-carboxamide]: the pEC50 is 6.48 and the maximal effect (Emax) worked out at 265%.

Take `CC(C)C[C@H]1C(=O)N(C)C2(CC2)C(=O)N[C@H](Cc2ccccc2)COc2cnc3ccccc3c2C(=O)N[C@H](C(=O)NCCc2cc(C(C)(C)C)on2)CC(=O)N1C` [Example 119, (3′S,7′S,13′R)-13′-benzyl-N-(2-(5-(tert-butyl)isoxazol-3-yl)ethyl)-7′-isobutyl-6′,9′-dimethyl-1′,5′,8′,11′-tetraoxo-2′,3′,4′,5′,6′,7′,8′,9′,11′,12′,13′,14′-dodecahydro-1′H-spiro[cyclopropane-1,10′-[1]oxa[4,7,10,14]tetraazacycloheptadecino[17,16-c]quinoline]-3′-carboxamide]: the pEC50 was 6.48 and the Emax worked out at 248%.

Regarding `CC(C)C[C@H]1C(=O)N(C)C2(CC2)C(=O)N[C@H](Cc2ccccc2)COc2cnc3ccccc3c2C(=O)N[C@H](C(=O)NCCc2cc(F)cc(F)c2)CC(=O)N1C` [Example 120, (3′S,7′S,13′R)-13′-benzyl-N-(3,5-difluorophenethyl)-7′-isobutyl-6′,9′-dimethyl-1′,5′,8′,11′-tetraoxo-2′,3′,4′,5′,6′,7′,8′,9′,11′,12′,13′,14′-dodecahydro-1′H-spiro[cyclopropane-1,10′-[1]oxa[4,7,10,14]tetraazacycloheptadecino[17,16-c]quinoline]-3′-carboxamide], the pEC50 is 6.48 and the Emax was 212%.

Source of the values: US20240208992A1, “MACROCYCLES AS CFTR MODULATORS” (Idorsia Pharmaceuticals Ltd, priority 2021, published 2024).
